Columns and labels:
[1] = Solubility of TPA carboxylates, Example 6; type: physicochemical; details: aqueous; table title ambient temperature, text 37° C.
[2] = Initial hydrolysis of TPA carboxylates monitored by HPLC at 37° C.; type: physicochemical; details: H2O, I=0.02 M
Protocol: The slowest initial hydrolysis rate was found for complex 2c t-[Pt(OAc)2(NH3)(2-pic)], with just 4% hydrolysis occurring after 9 h. The hydrolysis of the formate complex 4f was the fastest, with 24% hydrolysis occurring after 9 h. The hydrolysis rates of the acetate complexes followed the pattern 2c<4c<3c. […] Thus, hydrolysis of the acetate complexes is slowed by an approximate order of magnitude compared to their direct chloro analogs but there is little difference in the present case between 3- and 4-picoline. Steric hindrance therefore predominates over the electronic effects of the methyl group. In the case of the chloride complexes, the 3-pic directs less electron density to the platinum rendering it less nucleophilic relative to the 2-pic and 4-pic. 14 We observe the same trend in the acetate complexes, but the effect is lessened due to the carboxylate group being a weak ligand, with a low trans influence and trans effect.^11

[3] = tested on: guanosine-5′-monophosphate (5′-GMP, model for DNA); assay: Reaction with 5′-GMP followed by 195Pt NMR; details: within 24 h
Excerpt: The slow hydrolysis is a unique feature of two carboxylate ligands in a trans-axial position and can be modulated by choice of carboxylate. To examine how this might affect possible reactions with biomolecules, a preliminary study of the reactions of 4e with guanosine-5′-monophosphate (5′-GMP, model for DNA) and N-acetyl-L-methionine (N-AcMet, model for sulfur ligand metabolism) was made by ^195Pt NMR Spectroscopy. In the case of 5′-GMP the peak of the starting material at −1450 ppm is only gradually replaced by a new peak at −2365 ppm. This shift is consistent with the formation of a species that has a PtN4 coordination sphere,^26 due to replacement of both formate groups. Approximately 50% reaction (as judged by the intensity of the ^1H H8 signal and ^195Pt NMR signals), occurred within 24h. For N-AcMet the starting material was approximately 50% of total intensity even after 8 h. […] The chemical shift is consistent with a PtN2O2 coordination sphere—this could arise from displacement of formate by H2O/OH or an O-bound methionine.^27 This species preceded the formation of the N-AcMet product at −3320 ppm consistent with a PtN2S2 coordination sphere, trans-[Pt(NH3)(4-pic)(NAcMet)2],^23,28 which was 40% of the total platinum species after 10 h. […]

[4] = Reaction with N-AcMet followed by 195Pt NMR
Excerpt: The slow hydrolysis is a unique feature of two carboxylate ligands in a trans-axial position and can be modulated by choice of carboxylate. To examine how this might affect possible reactions with biomolecules, a preliminary study of the reactions of 4e with guanosine-5′-monophosphate (5′-GMP, model for DNA) and N-acetyl-L-methionine (N-AcMet, model for sulfur ligand metabolism) was made by ^195Pt NMR Spectroscopy. In the case of 5′-GMP the peak of the starting material at −1450 ppm is only gradually replaced by a new peak at −2365 ppm. This shift is consistent with the formation of a species that has a PtN4 coordination sphere,^26 due to replacement of both formate groups. Approximately 50% reaction (as judged by the intensity of the ^1H H8 signal and ^195Pt NMR signals), occurred within 24h. For N-AcMet the starting material was approximately 50% of total intensity even after 8 h. […] The chemical shift is consistent with a PtN2O2 coordination sphere—this could arise from displacement of formate by H2O/OH or an O-bound methionine.^27 This species preceded the formation of the N-AcMet product at −3320 ppm consistent with a PtN2S2 coordination sphere, trans-[Pt(NH3)(4-pic)(NAcMet)2],^23,28 which was 40% of the total platinum species after 10 h. […] Whether the possible formation of an O-bound methionine species is a reflection of the low pKal and the electronic effects of a π-acceptor ligand is worthy of further investigation.

[5] = tested on: human ovarian cancer cell line A2780; assay: MTT growth inhibition assay; type: cell-based; details: 72 h
Excerpt: • (1) Van Beusichem, M.; Farrell, N. Inorg. Chem. 1992, 31, 634-639. • (2) Farrell, N.; Kelland, L. R.; Roberts, J. D.; Van Beusichem, M. Cancer Res. 1992, 52, 5065-5072. • (3) Farrell, N. Cancer Invest. 1993, 11, 578-589. • (4) Coluccia, M.; Nassi, A.; Loseto, F.; Boccarelli, A.; Mariggio, M. A.; Giordano, D.; Intini, F. P.; Caputo, P.; Natile, G. J. Med. Chem. 1993, 36, 510-512. • (5) Khazanov, E.; Barenholz, Y.; Gibson, D.; Najajreh, Y. J. Med. Chem. 2002, 45, 5196-5204. • (6) Najajreh, Y.; Perez, J. M.; Navarro-Ranninger, C.; Gibson, D. J. Med. Chem. 2002, 45, 5189-5195. • (7) Montero, E. I.; Diaz, S.; Gonzalez-Vadillo, A. M.; Perez, J. M.; Alonso, C.; Navarro-Ranninger, C. J. Med. Chem. 1999, 42, 4264-4268. • (8) Natile, G.; Coluccia, M. Coord. Chem. Rev. 2001, 216-217, 383-410. • (9) Fojo, T.; Farrell, N.; Ortuzar, W.; Tanimura, H.; Weinstein, J.; Myers Timothy, G. I Crit. Rev. Oncol./ Hematol. 2005, 53, 25-34. • (10) Murphy, R. F.; Farrell, N.; Aguila, A.; Okada, M.; Balis, F. M.; Fojo, T. Proc. Am. Assoc. […] IC50 values were determined graphically

[6] = Aqueous solubility of TPA-acetate complexes (sequential addition of water); type: physicochemical; details: ambient temperature
Protocol: (§1) The aqueous solubility of the acetate compounds and the acid dissociation constants of the corresponding aqua species are given in Table 1. Use of acetates enhances aqueous solubility which is dependent on the exact nature of the donor ligands. The pKa values were determined by potentiometric titration of solutions of trans-[Pt(H2O)2(L)(L′)]^2+ (formed by the dissolution of the isolated trans-[Pt(NO3)2(L)(L′)]) with NaOH. […] (X=2,3,4-Me).^30

[7] = pKa of corresponding TPA diaqua complexes by potentiometric titration with NaOH; type: physicochemical; details: corresponding diaqua complex trans-[Pt(OH2)2(L)(L′)], ambient temperature
Protocol: as §1

[8] = Hydrolysis (first aquation step) followed by HPLC, Example 5; type: physicochemical; details: nanopure water
Protocol: For hydrolysis studies, […] complex was dissolved in 1 mL of nanopure water. The pH values of the samples were controlled in regular intervals and readjusted if necessary by addition of HNO3 (1 M, 0.1 M, 0.01 M) or NaOH (1 M, 0.1 M, 0.01 M). Aliquots of 20 μL were taken from the bulk solution for HPLC analysis. The overall scheme may be described as follows:
The aquated species were identified by comparison with the hydrolysis profile produced by the corresponding (labile) nitrate compounds. The rate constants for the first aquation step k1 are given in Table 2 and compared with other platinum complexes containing one or two labile ligands. […] In particular, these rates are 2-3 orders of magnitude lower than that of transplatin itself. The rate of aquation tends toward that of carboplatin which in phosphate buffer at 310 K gave a hydrolysis rate of 7.2×10^−7 s^−1 (but in aqueous solution gives a barely measurable rate constant of <5×10^−9 s^−1, which is modulated by the presence of buffer, nucleophile or acid). ^31,32No evidence for formation of Pt(TV) species during hydrolysis is detected under these conditions.^33

41M = assay: Growth inhibition in human ovarian cancer cell line panel, 96 h exposure; type: cell-based
Protocol: (§2) It is noteworthy that the acetate compounds maintain cytotoxicity with low resistance factors in all cases. The trans-[Pt(OAc)2(NH3)2] compound is also very water-soluble but the cytotoxicity of >100 μM confirms the requirement for a planar amine to enhance cytotoxicity in the trans geometry.

A2780 = assay: as above; type: cell-based
Protocol: as §2

CH1 = assay: as above; type: cell-based
Protocol: as §2

[9] = RF = (IC50 Resistant)/(IC50 Sensitive)

Solubility (mg/mL), TPA Substituted Carboxylates [1] | k1, initial hydrolysis rate constant [2] | reaction with 5′-GMP (by 1H H8 and 195Pt NMR signal intensity) [3] | starting material remaining, of total intensity ([4]; after 8 h) | N-AcMet product at −3320 ppm (PtN2S2), of total platinum species ([4]; after 10 h) | new species at −1775 ppm (PtN2O2), of total reaction product ([4]; over 10 h) | Solubility [6] | pKa1 [7] | pKa2 [7] | k1, rate constant for the first aquation step [8] | IC50 (41M) | IC50 (A2780) | IC50 (CH1) | Compound | cytotoxicity (growth inhibition) [5] | 41M RF (41M; [9]) | A2780 RF (A2780; [9]) | CH1 RF (CH1; [9])
35 mg/mL | 1.07e-05 s⁻¹ | Approximately 50% | Approximately 50% | 40% | ≤ 15% |  |  |  |  |  |  |  | Cc1ccncc1.N.O=C[O-].O=C[O-].[Pt+2] [4e, trans-[Pt(OFm)2(NH3)(4-pic)]] | most cytotoxic |  |  | 
 |  |  |  |  |  | 5.2 mg/mL | 3.78 | 6.92 | (7.4 ± 1.5) × 10^−7 s^−1 | 22 µM | 13 µM | 20 µM | CC(=O)[O-].CC(=O)[O-].N.[Pt+2].c1ccc2cnccc2c1 [trans-[Pt(OAc)2(NH3)(iquin)], trans-[diacetato(ammine)(isoquinoline)platinum(II)]] |  | (0.26) | (1.69) | (0.37)

Reference: patent publication US8324197B2, “Transplatinum complexes with N2O2 donor sets as cytotoxic and antitumor agents” (Virginia Commonwealth University, priority 2005, dated 2012)
